Laboratory results from ChEMBL document CHEMBL1201862, “PubChem BioAssay data set” (2004).
Activity calls are given as the source filed them.

How the values were obtained:
Aminopeptidase N = target: T1, Aminopeptidase N (Plasmodium falciparum FcB1/Columbia, UniProt O96935); experiment: malaria alanyl aminopeptidase activity blockers – biochemical, fluorogenic H-Leu-NHMec substrate, 1536-well (AID 1445); parameters: species or system Plasmodium falciparum 3D7, 3D7
T1 sequence (O96935 whole entry): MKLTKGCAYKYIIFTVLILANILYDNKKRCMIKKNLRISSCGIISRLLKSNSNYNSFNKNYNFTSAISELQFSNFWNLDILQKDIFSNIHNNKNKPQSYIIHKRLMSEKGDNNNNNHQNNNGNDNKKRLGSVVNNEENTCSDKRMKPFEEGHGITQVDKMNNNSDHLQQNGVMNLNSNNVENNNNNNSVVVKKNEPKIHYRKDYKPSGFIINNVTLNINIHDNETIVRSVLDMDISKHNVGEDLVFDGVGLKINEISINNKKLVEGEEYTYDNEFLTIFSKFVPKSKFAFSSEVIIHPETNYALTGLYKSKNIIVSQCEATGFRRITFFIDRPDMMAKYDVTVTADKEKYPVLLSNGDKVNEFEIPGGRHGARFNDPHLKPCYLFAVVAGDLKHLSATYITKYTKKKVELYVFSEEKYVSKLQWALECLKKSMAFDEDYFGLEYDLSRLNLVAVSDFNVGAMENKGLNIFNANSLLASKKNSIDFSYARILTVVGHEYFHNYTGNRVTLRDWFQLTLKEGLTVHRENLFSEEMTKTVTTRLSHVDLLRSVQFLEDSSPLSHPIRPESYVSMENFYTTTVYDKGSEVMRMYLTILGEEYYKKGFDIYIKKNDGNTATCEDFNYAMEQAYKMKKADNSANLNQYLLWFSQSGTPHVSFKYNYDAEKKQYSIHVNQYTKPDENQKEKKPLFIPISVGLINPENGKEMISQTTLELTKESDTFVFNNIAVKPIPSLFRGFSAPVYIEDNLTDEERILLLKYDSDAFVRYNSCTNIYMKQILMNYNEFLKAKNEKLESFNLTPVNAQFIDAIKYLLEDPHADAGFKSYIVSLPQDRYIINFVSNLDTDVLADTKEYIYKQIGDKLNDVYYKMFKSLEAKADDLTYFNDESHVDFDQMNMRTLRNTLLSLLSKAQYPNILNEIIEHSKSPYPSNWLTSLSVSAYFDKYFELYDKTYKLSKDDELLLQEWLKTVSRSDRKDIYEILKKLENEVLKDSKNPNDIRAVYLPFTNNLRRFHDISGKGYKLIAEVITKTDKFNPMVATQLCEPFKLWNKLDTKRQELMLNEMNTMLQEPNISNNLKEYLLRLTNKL

[1] = target: Photoreceptor-specific nuclear receptor (Homo sapiens, UniProt Q9Y5X4); format: functional, cell-based;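 further: CHO-S cells with Gal4-NCOR and VP16-NR2E3 two-hybrid luciferase reporter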
[2] = loss of viability in HepG2 cells – cell-based, CellTiter-Glo, cherry-picked, cytotoxicity control for Shn3 inhibitor project, dose response (AID 624134); format: functional
[3] = reduction of Shn3 3'UTR-driven luciferase in osteoblasts – cell-based, Clone20 osteoblasts, firefly luciferase, cherry-picked, dose response (AID 624132); format: functional;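 further: firefly luciferase luminescence from reporter carrying the Shn3 3'UTR in osteoblasts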
Paired box protein Pax-8 = Paired box protein Pax-8 (Homo sapiens, UniProt Q06710); experiment: PAX8 transcriptional activity inhibition in RMG-I – RMG-I cells, luciferase, cherry-pick, dose response (AID 687027); format: functional, cell-based;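 further: luciferase reporter driven by Pax8 target thyroperoxidase promoter measured by SteadyGlo luminescence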
[4] = toxicity toward HepG2 liver cells – cell-based, plate reader, cherry-pick, antagonist series, cytotoxicity control, dose response (AID 743416); format: functional
[5] = blockade of melanocortin 4 receptor signaling – cell-based, plate reader, cherry pick, counter-screen for LGR2 antagonist project, dose response (AID 743444); format: functional;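 further: transfected HEK 293 cells stimulated with alpha-MSH peptide; potency of inhibitors of the alpha-MSH evoked signal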
[6] = blockers of bursicon-stimulated LGR2 cAMP reporter – cell-based, HEK293, CRE-luciferase reporter, cherry pick, set 2, dose response (AID 743343); format: functional;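 further: transfected cells were stimulated with diluted bursicon conditioned medium after compound addition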
[7] = target: T2, C-C chemokine receptor type 6 (Homo sapiens, UniProt P51684); experiment: antagonism of CCR6 beta-arrestin recruitment – cell-based, luminescent beta-arrestin readout, dose response (AID 504728); format: functional
T2 sequence (P51684 whole entry): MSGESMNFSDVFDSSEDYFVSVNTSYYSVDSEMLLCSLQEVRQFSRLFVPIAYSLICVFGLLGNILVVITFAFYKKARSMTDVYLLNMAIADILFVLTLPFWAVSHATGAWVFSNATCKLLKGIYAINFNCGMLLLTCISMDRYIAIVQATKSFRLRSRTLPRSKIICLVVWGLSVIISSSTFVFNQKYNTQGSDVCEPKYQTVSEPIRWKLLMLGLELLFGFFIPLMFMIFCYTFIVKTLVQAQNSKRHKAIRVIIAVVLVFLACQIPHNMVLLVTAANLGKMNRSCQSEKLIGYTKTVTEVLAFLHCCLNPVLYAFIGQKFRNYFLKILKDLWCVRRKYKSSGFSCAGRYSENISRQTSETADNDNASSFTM

[8] = A549 cell cytotoxicity, dose response, cytotoxicity control, plate reader, cherry-pick, antagonist series (AID 743412); format: functional, cell-based
Beta-galactosidase = Beta-galactosidase (Escherichia coli, UniProt Q8VNN2); experiment: detection-enzyme interference by beta-gal modulators – biochemical, E. coli enzyme, set 3, artefact control for CCR6 antagonist project, dose response (AID 504712); format: functional
[9] = non-specific 3'UTR reporter inhibition in Clone20-Shn3RL – cell-based, Renilla luciferase, cherry-picked, counter-screen for Shn3 inhibitor project, dose response (AID 624133); format: functional
[10] = viability loss in HEK293 cells – cell-based, plate reader, cherry-picked samples, cytotoxicity control, dose response (AID 743446); format: functional
Hexokinase = target: T3, Hexokinase (Trypanosoma brucei, UniProt Q38C41); experiment: Confirmation assay for inhibitors of Trypanosoma brucei hexokinase 1-Analogue-first series. [Related pubchem assays (depositor defined):AID1430, AID1632, AID2516, AID2560, AID2579, AID2600, AID449725, AID492951]; format: functional
T3 sequence (Q38C41 whole entry): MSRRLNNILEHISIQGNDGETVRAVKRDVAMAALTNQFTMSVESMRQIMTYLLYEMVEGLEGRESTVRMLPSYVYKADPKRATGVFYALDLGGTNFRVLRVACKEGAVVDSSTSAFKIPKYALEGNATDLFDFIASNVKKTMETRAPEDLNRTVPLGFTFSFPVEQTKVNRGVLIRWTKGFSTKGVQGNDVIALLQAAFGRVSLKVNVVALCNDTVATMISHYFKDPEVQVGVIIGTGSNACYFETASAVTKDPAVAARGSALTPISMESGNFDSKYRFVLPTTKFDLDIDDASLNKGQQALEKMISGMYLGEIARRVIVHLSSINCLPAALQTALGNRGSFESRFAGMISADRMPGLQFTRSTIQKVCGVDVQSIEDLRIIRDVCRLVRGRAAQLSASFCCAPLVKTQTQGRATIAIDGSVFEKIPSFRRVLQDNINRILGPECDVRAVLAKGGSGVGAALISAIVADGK

[11] = target: T4, Voltage-gated N-type calcium channel alpha-1B subunit/Amyloid beta A4 precursor protein-binding family A member 1 (Homo sapiens, UniProt Q00975+Q02410); format: protein assay
[12] = target: T4, Voltage-gated N-type calcium channel alpha-1B subunit/Amyloid beta A4 precursor protein-binding family A member 1; format: protein assay; remark: listed apart in the source
[13] = target: T5, Acyl-homoserine lactone acylase PvdQ (Pseudomonas aeruginosa (strain LESB58), UniProt Q9I194); experiment: PvdQ acylase enzyme activity blockers – biochemical, fluorescence, plate reader and imaging, cherry-picks, dose response (AID 493231)
T5 sequence (Q9I194 whole entry): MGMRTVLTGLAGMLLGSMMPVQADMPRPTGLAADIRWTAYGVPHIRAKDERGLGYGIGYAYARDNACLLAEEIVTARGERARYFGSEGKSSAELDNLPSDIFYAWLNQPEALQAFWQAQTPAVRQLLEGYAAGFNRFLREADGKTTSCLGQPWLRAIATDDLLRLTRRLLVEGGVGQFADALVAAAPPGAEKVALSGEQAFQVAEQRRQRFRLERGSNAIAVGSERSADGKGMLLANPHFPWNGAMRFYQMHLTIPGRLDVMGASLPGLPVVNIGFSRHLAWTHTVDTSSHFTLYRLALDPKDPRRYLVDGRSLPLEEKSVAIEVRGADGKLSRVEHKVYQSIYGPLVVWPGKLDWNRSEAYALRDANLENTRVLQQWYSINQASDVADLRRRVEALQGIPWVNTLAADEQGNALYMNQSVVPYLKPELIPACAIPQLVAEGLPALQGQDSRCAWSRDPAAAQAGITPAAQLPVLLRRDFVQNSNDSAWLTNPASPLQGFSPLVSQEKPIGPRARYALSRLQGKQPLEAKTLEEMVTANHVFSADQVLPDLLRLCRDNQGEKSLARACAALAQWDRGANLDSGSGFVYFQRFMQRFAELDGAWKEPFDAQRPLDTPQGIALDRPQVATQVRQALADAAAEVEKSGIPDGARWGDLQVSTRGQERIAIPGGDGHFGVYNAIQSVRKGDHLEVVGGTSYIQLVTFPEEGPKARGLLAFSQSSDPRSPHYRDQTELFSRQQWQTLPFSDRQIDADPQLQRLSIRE

T4 sequence (Q00975 whole entry): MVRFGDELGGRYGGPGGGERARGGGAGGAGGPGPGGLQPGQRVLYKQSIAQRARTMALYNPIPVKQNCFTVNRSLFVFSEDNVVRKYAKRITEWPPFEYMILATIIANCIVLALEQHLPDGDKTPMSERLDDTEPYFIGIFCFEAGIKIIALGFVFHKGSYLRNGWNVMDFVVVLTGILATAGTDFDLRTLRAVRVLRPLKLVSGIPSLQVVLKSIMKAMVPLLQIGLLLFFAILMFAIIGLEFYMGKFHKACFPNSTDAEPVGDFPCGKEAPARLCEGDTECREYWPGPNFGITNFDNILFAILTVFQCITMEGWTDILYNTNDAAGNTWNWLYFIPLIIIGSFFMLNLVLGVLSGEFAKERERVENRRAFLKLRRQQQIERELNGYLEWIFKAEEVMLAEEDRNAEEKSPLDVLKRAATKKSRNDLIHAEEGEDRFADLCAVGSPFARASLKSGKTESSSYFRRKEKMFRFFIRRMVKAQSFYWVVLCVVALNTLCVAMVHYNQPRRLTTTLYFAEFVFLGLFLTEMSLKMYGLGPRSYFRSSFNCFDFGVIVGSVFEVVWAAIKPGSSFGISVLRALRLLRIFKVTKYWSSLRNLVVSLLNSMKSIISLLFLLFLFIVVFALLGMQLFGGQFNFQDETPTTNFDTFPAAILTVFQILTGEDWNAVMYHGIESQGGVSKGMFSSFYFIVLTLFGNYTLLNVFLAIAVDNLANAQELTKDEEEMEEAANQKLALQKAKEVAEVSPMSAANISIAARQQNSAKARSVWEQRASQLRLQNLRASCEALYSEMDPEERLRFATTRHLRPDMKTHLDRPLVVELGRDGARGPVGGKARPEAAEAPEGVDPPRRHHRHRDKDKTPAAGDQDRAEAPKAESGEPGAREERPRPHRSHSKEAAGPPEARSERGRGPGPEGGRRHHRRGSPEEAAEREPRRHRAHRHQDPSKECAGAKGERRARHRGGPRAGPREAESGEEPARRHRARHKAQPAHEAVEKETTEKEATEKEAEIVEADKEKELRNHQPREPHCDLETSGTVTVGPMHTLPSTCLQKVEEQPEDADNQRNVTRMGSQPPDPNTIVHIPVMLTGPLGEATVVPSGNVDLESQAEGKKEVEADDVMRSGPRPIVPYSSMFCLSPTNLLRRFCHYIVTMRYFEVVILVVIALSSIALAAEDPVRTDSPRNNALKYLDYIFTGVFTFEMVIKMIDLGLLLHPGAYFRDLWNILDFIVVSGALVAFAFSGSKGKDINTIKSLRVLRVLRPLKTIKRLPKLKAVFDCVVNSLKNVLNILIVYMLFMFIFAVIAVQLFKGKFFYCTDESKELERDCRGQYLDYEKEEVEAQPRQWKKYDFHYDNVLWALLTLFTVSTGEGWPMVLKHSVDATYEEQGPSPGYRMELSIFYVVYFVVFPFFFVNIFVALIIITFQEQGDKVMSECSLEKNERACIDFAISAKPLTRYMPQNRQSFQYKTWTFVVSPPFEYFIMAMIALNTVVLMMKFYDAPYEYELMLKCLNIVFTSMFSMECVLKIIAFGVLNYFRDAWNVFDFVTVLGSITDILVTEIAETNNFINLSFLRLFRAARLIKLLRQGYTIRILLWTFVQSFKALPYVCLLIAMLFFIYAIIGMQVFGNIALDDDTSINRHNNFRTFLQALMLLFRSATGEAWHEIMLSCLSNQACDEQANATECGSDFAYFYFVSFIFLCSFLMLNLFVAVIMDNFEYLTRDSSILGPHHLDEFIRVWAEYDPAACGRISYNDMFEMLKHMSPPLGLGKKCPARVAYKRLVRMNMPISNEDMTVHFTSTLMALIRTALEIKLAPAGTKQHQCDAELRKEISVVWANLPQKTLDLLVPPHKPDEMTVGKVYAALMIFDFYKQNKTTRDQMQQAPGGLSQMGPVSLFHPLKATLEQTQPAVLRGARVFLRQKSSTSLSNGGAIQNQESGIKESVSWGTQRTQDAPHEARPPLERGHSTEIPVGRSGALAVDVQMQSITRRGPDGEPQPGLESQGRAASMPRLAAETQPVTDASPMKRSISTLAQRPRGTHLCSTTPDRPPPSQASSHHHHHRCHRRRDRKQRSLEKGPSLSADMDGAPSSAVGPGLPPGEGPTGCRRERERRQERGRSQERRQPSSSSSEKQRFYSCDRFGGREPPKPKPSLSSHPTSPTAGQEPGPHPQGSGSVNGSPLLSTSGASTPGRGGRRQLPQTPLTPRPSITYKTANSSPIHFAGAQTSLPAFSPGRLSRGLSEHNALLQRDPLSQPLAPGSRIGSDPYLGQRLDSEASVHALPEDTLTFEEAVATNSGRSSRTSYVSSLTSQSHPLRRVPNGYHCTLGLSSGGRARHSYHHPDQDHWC
T4 sequence (Q02410 whole entry): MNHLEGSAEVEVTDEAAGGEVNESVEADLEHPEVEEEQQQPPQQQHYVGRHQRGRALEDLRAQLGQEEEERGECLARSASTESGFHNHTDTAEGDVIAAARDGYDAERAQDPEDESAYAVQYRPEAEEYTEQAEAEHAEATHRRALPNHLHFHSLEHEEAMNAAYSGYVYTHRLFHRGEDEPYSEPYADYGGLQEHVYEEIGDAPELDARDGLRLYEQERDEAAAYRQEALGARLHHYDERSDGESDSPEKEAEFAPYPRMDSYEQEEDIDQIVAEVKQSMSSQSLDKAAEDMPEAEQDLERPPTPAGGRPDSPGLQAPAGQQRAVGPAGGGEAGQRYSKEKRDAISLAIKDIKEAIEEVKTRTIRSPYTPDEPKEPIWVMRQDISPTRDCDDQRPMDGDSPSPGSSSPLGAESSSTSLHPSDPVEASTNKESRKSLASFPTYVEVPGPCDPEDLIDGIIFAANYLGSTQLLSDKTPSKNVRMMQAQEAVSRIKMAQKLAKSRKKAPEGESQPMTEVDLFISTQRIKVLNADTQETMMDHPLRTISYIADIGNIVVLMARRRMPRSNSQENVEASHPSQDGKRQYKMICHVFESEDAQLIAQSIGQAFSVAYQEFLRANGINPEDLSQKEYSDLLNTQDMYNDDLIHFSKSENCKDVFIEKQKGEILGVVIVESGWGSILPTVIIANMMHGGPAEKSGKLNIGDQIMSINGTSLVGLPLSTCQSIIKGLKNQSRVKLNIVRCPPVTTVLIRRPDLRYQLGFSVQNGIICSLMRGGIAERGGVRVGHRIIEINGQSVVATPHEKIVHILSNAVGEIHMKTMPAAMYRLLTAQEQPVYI
Paired box protein Pax-8, sequence (Q06710 whole entry): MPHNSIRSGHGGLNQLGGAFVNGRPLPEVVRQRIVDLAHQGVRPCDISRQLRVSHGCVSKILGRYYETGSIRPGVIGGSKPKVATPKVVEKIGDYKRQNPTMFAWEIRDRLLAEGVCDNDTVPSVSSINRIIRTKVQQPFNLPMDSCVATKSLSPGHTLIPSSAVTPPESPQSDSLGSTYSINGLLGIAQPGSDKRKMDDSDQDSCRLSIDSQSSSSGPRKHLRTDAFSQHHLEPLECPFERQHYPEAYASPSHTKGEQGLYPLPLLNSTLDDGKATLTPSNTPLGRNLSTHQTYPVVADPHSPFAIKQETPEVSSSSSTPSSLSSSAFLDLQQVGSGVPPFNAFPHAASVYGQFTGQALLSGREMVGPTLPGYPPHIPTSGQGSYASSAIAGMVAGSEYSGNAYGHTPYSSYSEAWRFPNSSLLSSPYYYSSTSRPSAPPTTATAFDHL
Beta-galactosidase, sequence (Q8VNN2 whole entry): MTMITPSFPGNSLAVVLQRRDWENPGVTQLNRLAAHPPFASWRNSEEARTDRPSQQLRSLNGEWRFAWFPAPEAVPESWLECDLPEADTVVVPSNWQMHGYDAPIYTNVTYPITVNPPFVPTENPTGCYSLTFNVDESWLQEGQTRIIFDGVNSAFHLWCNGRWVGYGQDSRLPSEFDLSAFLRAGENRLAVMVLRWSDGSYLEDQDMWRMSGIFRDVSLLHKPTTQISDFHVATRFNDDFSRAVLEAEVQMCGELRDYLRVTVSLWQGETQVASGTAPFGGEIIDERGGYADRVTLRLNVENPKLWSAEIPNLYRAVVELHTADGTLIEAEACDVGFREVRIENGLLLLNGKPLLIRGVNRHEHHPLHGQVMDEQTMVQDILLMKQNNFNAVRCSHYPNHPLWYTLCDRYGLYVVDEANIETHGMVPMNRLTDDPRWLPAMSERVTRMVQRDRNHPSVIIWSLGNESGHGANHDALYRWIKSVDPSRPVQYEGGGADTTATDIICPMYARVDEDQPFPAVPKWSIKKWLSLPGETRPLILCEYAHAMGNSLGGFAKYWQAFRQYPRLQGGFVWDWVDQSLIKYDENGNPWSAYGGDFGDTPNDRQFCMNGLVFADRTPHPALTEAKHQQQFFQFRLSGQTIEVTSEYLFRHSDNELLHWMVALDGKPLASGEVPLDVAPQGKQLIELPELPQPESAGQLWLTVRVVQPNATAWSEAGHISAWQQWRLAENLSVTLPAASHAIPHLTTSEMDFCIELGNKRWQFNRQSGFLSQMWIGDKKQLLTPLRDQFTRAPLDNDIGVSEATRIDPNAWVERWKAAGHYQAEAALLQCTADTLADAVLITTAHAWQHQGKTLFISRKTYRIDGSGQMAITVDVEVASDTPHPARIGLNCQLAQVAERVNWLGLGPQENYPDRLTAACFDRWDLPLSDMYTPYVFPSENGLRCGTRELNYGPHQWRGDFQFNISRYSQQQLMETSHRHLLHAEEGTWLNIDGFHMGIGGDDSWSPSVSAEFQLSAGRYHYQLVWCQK
Photoreceptor-specific nuclear receptor, sequence (Q9Y5X4 whole entry, the tested form may be a part): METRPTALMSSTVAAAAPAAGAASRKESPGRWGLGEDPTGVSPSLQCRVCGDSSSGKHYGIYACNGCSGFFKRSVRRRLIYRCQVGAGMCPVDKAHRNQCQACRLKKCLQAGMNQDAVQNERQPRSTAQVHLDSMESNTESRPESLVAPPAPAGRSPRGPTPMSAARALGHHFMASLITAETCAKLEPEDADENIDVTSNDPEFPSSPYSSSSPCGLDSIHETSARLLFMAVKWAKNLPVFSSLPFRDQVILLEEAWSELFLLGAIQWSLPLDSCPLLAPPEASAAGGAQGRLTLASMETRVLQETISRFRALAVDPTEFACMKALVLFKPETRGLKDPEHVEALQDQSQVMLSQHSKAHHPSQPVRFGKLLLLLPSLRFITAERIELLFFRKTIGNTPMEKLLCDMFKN

O=C1N=C(NS(=O)(=O)Cc2ccccc2)S/C1=C/c1cccc([N+](=O)[O-])c1
IC50 (Aminopeptidase N): 50.2 µM (active)

Fc1ccc(N2N=C(c3cccs3)CC2c2ccco2)c(F)c1 (configuration not stated)
IC50 (Aminopeptidase N): 107 µM (active)

CC(=O)Nc1ccc(Sc2ccc([N+](=O)[O-])o2)cc1
IC50 [1]: 2.72 µM (active)
AC50 [2]: 20.6 µM (active)
AC50 [3]: 2.15 µM (active)
AC50 (Paired box protein Pax-8): 7.36 µM (active)
AC50 [4]: 13.8 µM (active)
AC50 [5]: 22.7 µM (active)
AC50 [6]: 26.4 µM (active)
IC50 [7]: > 66.6 µM (inactive)
AC50 [8]: 37 µM (active)
IC50 (Beta-galactosidase): > 66.6 µM (inactive)
AC50 [9]: 11.2 µM (active)
AC50 [10]: 7.13 µM (active)

CN(Cc1ccccc1)C(=O)Cn1sc2ccccc2c1=O
IC50 (Hexokinase): 7.87 µM (active)

COC(=O)c1ccc(/C=C2/SC(=S)N(CCCC(=O)Nc3ccc(O)cc3)C2=O)cc1
IC50 [11]: 35.4 µM (active)
IC50 [12]: > 50 µM (inactive)

CCOC(=O)N1CCN(c2ccc(Cl)cc2)CC1
AC50 [13]: 7.18 µM (active)

O=C(NC1CCS(=O)(=O)C1)c1cccc(Br)c1 (configuration not stated)
AC50 [13]: 8.94 µM (active)

Cc1ccc(C(=O)Nc2cc(Cl)ccc2C(=O)O)cc1C
IC50 (Hexokinase): 10.7 µM (active)

C/C=C\C=C/C(=O)Nc1cccc(C2=NOC3(C2)C[C@@H](C(N)=O)N(C(=O)/C=C/C=C\C)C3)c1 (some centres not stated)
IC50 [11]: 10.1 µM (active)
IC50 [12]: 4.01 µM (active)
